Assay results published in patent publication US20180153830A1, “SELECTIVE INHIBITORS OF UNDIFFERENTIATED CELLS” (Yissum Research Development Company of the Hebrew …, priority 2012, published 2018).
Like-named read-outs stand apart in the source and are kept apart here.

Experiments:
Type in all cases: cell-based
Huh7 cells = assay: CellTiter-Glo counter-screen, Huh7; conditions: Homo sapiens, Huh-7, cancer cells
Experimental: The hepatocarcinoma cell line Huh-7 was cultured in a DMEM/F12 (1:1) medium, supplemented with 10% FBS, penicillin (50 U/ml) and streptomycin (50 μg/ml).
(§1) 696 confirmed hits from the confirmation screen were tested for profiling in a panel of 13 different cell types, using the same screening protocol described above (except in the case of embryonic stem cell-derived neural stem cells (NSCs) and mesenchymal stem cells (MSCs), for which the protocol is described below). As discussed below, compounds were tested either in dose-dependent multiple concentration manner or in single concentration manner. CSES2 and CSES2-SO2/3 cell lines and the early endodermal progenitors derived from this cell line (CSES2-SO2/3-differentiated) were screened at 8 concentrations ranging from 50 μM to 23 nM with 1:3 serial dilution steps. BJ-iPS28 cell line and the BJ fibroblasts from which it was derived were screened at 6 concentrations ranging from 50 μM to 200 nM with 1:3 serial dilution steps. Cardiomyocytes were screened in one concentration of 20 μM. HeLa and NTERA-2 cell lines were screened in duplicates of 20 μM. Kelly and Huh-7 were screened in triplicates of 20 μM. Hepatocytes were screened in duplicates of 20 μM in the original 96-well plates in which the cells arrived (40,000 cells per well, in 160 μl medium, the volumes of all reagents involved were adjusted accordingly). MSCs and NSCs were screened in duplicates of 12.5 μM.
(§2) In order to identify highly-selective cytotoxic inhibitors of hPSCs, the 696 cytotoxic inhibitors of hPSCs identified as described in Example 1 were counter-screened as described in the Materials and Methods section against other cell types, representative of all germ layers and developmental stages. Importantly, many of these cell types were differentiated from human ES or iPS cells. The screened cell types included ES-derived neural stem cells (NSCs), ES-derived mesenchymal stem cells (MSCs), ES-derived endodermal progenitor cells, ES-derived hepatocytes, iPS-derived cardiomyocytes, iPS-derived fibroblasts of origin (BJ fibroblasts), and three cancer cell lines: neuroblastoma (Kelly), cervical cancer (HeLa) and hepatocarcinoma (Huh7). The cell types and their relationship to stem cells are depicted schematically in FIG. 14.

[1] = system: CSES2 human embryonic stem cells; assay: CellTiter-Glo luminescent cell viability screen, CSES2; conditions: for inhibition at 20 µM: pluripotent stem cells
Experimental: 5,000 CSES2 cells were plated in 50 μl per well of mTeSR1 medium into black 384-well clear-bottom plates (Falcon BD) pre-coated with Matrigel™ using WellMate cell dispenser (Matrix, Hudson, N.H.). 24 hours after plating, medium was replaced with 25 μl of fresh medium and 25 μl of 40 μM compound medium solutions in 1% DMSO from the intermediate compound dilution plates. The plates were incubated at 37° C., in a 5% CO2 atmosphere, for the entire duration of the screen, apart from the time required for liquid handling. […] 50 μl of CellTiter-Glo® reagent was added to each well of the assay plates and fully mixed. After incubation at room temperature for 15 minutes, 25 μl of liquid was transferred from each well into a white opaque-bottom 384-well plate (PerkinElmer), and luminescence was measured using an EnVision® plate reader (PerkinElmer). 16 neutral control wells (0.5% DMSO) and 8 positive control wells (5 μM amsacrine hydrochloride were used to normalize the compound effect. All liquid transfer steps were handled with a Biomek® FXP Laboratory Automation Workstation (Beckman Coulter, Fullerton, Calif.) and Muitidrop Combi liquid dispenser (Thermo Fisher, Waltham, Mass.). An Assay Analyzer (Genedata, Basel, Switzerland) was used for data pattern correction and calculation. The Spotfire software (Spotfire, Somerville, Mass.) was used for data illustration.
The compounds identified as hits from the primary screen were retested at a concentration of 20 μM against three pluripotent stem cell lines (CSES2, H9 and CSES2-SO2/3) for confirmation screens.
as §1
The raw intensity data for each well were background-corrected by subtraction of the median intensities across all positive control wells on the same plate, and used to calculate the inhibitory effect of each compound per cell line. A Genedata Assay Analyzer and Condoseo were used for data pattern correction, calculation and IC50 curve fitting. A Z′ factor was determined for each plate.

[2] = CellTiter-Glo counter-screen, hepatocytes; conditions: human, human embryonic stem cell-derived hepatocytes (Cellartis), read-out: Inhibition (%) ES-derived hepatocytes
Experimental: Human embryonic stem cell-derived hepatocytes were obtained from Cellartis (Goteborg, Sweden), and handled according to the manufacturer's instructions;
as §1, §2

[3] = system: CSES2-SO2/3 ES-derived endodermal progenitors; assay: CellTiter-Glo counter-screen, endodermal progenitors; conditions: Homo sapiens; for EC50: 24 hours, differentiated cells
Experimental: CSES2-SO2/3 embryonic stem cells were differentiated to endodermal progenitors using an established protocol [Duan et al. Stem Cells 28:674-686 (2010)]. Undifferentiated cells were seeded at a density of 10,000 cells/cm^2 on MatrigelT™-coated plates, with mTeSR1 medium. The next day (day 1), medium was replaced to serum-free RPMI-1640, supplemented with 2 mM glutamine, 100 ng/ml Activin A 60 μg/ml of G418 geneticin sulfate and 0.3 μg/ml of puromycin. From day 3 to day 8, the same medium was also supplemented with 1×B27 supplement (Invitrogen) and 0.5 mM sodium butyrate. The cellular identity of the cells as endodermal progenitors was verified by quantifying the percentage of green SOX17+ cells, and the percentage of CXCR4+ cells, using a Guava® EasyCyte™ Plus flow cytometry system (Millipore). Further validation was obtained by fluorescence-staining of the cells with an antibody against the early endodermal surface marker CXCR4 (CXCR4-PE antibody, 1:25; BD Biosciences). The percentage of CXCR4+ cells was also quantified using the Guava® EasyCyte™ Plus flow cytometry system.
as §1, with “CSES2 and CSES2-SO2/3 cell lines and the early endodermal progenitors derived from this cell line (CSES2-SO2/3-differentiated) were screened at 8 concentrations ranging from 50 μM to 23 nM with 1:3 serial dilution steps.” left out
as §2
The identified compounds were screened at 8 concentrations using both the undifferentiated red cells and the differentiated green cells, and reliable EC50 values were thereby calculated for the genetically identical differentiated and undifferentiated cells.

[4] = system: ES-derived neural stem cells; assay: CellTiter-Glo counter-screen, neural stem cells; conditions: Homo sapiens, Neural stem cell
[5] = 24 h, read-out: EC50 CSES2 24 hours
[6] = 48 h, read-out: EC50 CSES2 48 hours

inhibition at 20 µM [2] [%]	Structure (SMILES)	inhibition at 20 µM (Huh7 cells) [%]	EC50 [1, 5] [nM]	EC50 [1, 6] [nM]	inhibition at 20 µM [1] [%]	EC50 [3] [nM]	inhibition at 20 µM [3] [%]	inhibition at 12.5 µM [4] [%]
13.4	O=C1C=CC=C1/C=C/C(=N\Nc1ccccc1)c1ccccc1 [PluriSIn #13]	11.8	1540	1910	101	> 50000	15.8	29.7
0.3	O=S(=O)(NNc1ccccc1)c1ccc2ccccc2c1 [PluriSIn #5]	3.6	3060	1270	88.2	> 50000	12.9	60.9
13.2	O=C(Nc1ccccc1)n1cc(F)c(=O)[nH]c1=O [PluriSIn #2]	-0.2	2030	2630	84	> 50000	-8.3	53.6
10.5	O=C(NCCc1ccc(O)cc1)c1ccc(N2CCCCC2)cc1 [PluriSIn #4]	12.1	1110	594	84.7	> 50000	-1.1	15.5
15.3	CC(=O)Oc1ccc(/C=C/c2ccc3c(c2)CCN3C)cc1 [PluriSIn #7]	11.2	1980	749	104	> 50000	24.8	92.8
6.1	C/C(=N\O)NNc1ccc(Cl)cc1 [PluriSIn #9]	10.4	7960	2160	102	> 50000	11.9	28.9

Continued, compound first:

Structure (SMILES)	inhibition at 20 µM [2] [%]	inhibition at 20 µM (Huh7 cells) [%]	EC50 [1, 5] [nM]	EC50 [1, 6] [nM]	inhibition at 20 µM [1] [%]	EC50 [3] [nM]	inhibition at 20 µM [3] [%]	inhibition at 12.5 µM [4] [%]
Nc1cc(N)cc(COc2ccc(-c3ccccc3)cc2)c1 [PluriSIn #3]	2.8	-5.9	2980	1320	98	> 50000	-9.2	90.4
Cc1oc2ccccc2c1/C=N/Nc1ccccc1 [PluriSIn #8]	14.6	10.9	2300	2390	98.6	> 50000	0	15
O=C(NN(C(=O)c1ccccc1)c1ccccc1)c1ccc(Cl)cc1 [PluriSIn #14]	-4.1	11.5	2030	2900	90.1	> 50000	18.8	18.4
CCN(CC)C(=O)C(=O)c1c(-c2ccccc2)[nH]c2c1sc1ccccc12 [PluriSIn #12]	-3.9	-1	6850	5100	93	> 50000	–	9.9
CCCCCC(=O)NNc1ccc(Cl)cc1 [PluriSIn #10]	3.6	9.3	1670	2050	95	> 50000	33.8	23.7
C(=N\C1CCC(CC2CCCCC2)CC1)/OC1CCOC1 (centres unmarked) [PluriSIn #15]	18.8	22.2	2980	3270	77.6	> 50000	2.1	70.3
CCOC(=O)CN1CC(=O)/C(=C\NNc2ccccc2)C1=O [PluriSIn #11]	-4.7	7	3830	2580	98.8	> 50000	4.3	17.2
O=C(NNc1ccccc1)c1ccncc1 [PluriSIn #1, isonicotinic acid N′-phenylhydrazide]	16.2	5.8	1540	1990	92.1	> 50000	6.5	18.2
Cc1ccc(NNC(=O)C(O)(c2ccccc2)c2cccs2)cc1 (centres unmarked) [PluriSIn #6, 2-hydroxy-2-(thiophen-2-yl)-2-phenylacetic acid 4-methyl-N′-phenylhydrazide]	-5.2	4.6	2550	1920	94.8	> 50000	-2.5	16.5
